Measured values as given in PubChem BioAssay (NCI).
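Dose response: 5 concentrations. Exposure: 48 h. Format: 96-well plates. Endpoint: linear interpolation; highest concentration if not reached. TGI denotes the concentration required for complete inhibition of growth.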

Experiments:
Test in all cases: inhibition of tumour cell growth, NCI panel, 48 h
K-562 leukemia = test system: K-562 leukemia
SN12C renal = test system: SN12C renal
A498 renal = test system: A498 renal
LOX IMVI melanoma = test system: LOX IMVI melanoma
UACC-257 melanoma = test system: UACC-257 melanoma
MOLT-4 leukemia = test system: MOLT-4 leukemia
UO-31 renal = test system: UO-31 renal
SK-MEL-28 melanoma = test system: SK-MEL-28 melanoma
DU-145 prostate = test system: DU-145 prostate
OVCAR-4 ovarian = test system: OVCAR-4 ovarian
EKVX NSCLC = test system: EKVX NSCLC

O=c1cc(-c2cccnc2)[nH]c2cc3c(cc12)OCO3
TGI (K-562 leukemia): > 100 µM
TGI (SN12C renal): > 100 µM
TGI (A498 renal): > 69.9 µM
TGI (LOX IMVI melanoma): > 100 µM
TGI (UACC-257 melanoma): > 100 µM
TGI (MOLT-4 leukemia): > 100 µM
TGI (UO-31 renal): > 100 µM
TGI (SK-MEL-28 melanoma): > 100 µM
TGI (DU-145 prostate): > 100 µM
TGI (OVCAR-4 ovarian): > 100 µM

CC1C(C#N)(C#N)C(C#N)=C(N)C1(Cl)[N+](=O)[O-] (stereo unspecified)
TGI (K-562 leukemia): > 100 µM
TGI (SN12C renal): 20.9 µM
TGI (A498 renal): 31.5 µM
TGI (LOX IMVI melanoma): 18.8 µM
TGI (UACC-257 melanoma): 24.5 µM
TGI (EKVX NSCLC): 41.4 µM
TGI (MOLT-4 leukemia): 11.6 µM
TGI (UO-31 renal): 29.4 µM
TGI (DU-145 prostate): 30.6 µM
TGI (OVCAR-4 ovarian): 25.8 µM

CC(=O)OC(Cc1c(O)c2c(C)cccc2oc1=O)C(C)(C)O (stereo unspecified)
TGI (K-562 leukemia): > 100 µM
TGI (SN12C renal): > 100 µM
TGI (A498 renal): > 100 µM
TGI (LOX IMVI melanoma): > 100 µM
TGI (UACC-257 melanoma): > 100 µM
TGI (EKVX NSCLC): > 100 µM
TGI (MOLT-4 leukemia): > 100 µM
TGI (UO-31 renal): > 100 µM
TGI (SK-MEL-28 melanoma): > 100 µM
TGI (DU-145 prostate): > 100 µM

C=C1C[C@H](O)[C@H](Br)C(C)(C)C12CCC(C)(Cl)C(Br)C2 (stereo partly specified)
TGI (K-562 leukemia): 56.2 µM
TGI (SN12C renal): 14.8 µM
TGI (LOX IMVI melanoma): 20.1 µM
TGI (UACC-257 melanoma): 3.06 µM
TGI (EKVX NSCLC): 1.61 µM
TGI (MOLT-4 leukemia): 75 µM
TGI (UO-31 renal): 17 µM
TGI (SK-MEL-28 melanoma): 19 µM
TGI (DU-145 prostate): 15.8 µM
TGI (OVCAR-4 ovarian): 7.95 µM

Cc1ccc(N/C(SCc2ccccc2)=C(\C(Cl)=C(Cl)Cl)[N+](=O)[O-])c(C)c1
TGI (SN12C renal): 43.8 µM
TGI (A498 renal): 74.1 µM
TGI (UACC-257 melanoma): > 100 µM
TGI (EKVX NSCLC): > 100 µM
TGI (MOLT-4 leukemia): > 100 µM
TGI (UO-31 renal): 63.5 µM
TGI (SK-MEL-28 melanoma): 71.6 µM
TGI (DU-145 prostate): > 100 µM
TGI (OVCAR-4 ovarian): 54 µM

O=C(CC(Cl)=C(Cl)Cl)c1ccccc1
TGI (K-562 leukemia): 50 µM
TGI (A498 renal): > 100 µM
TGI (LOX IMVI melanoma): 32.1 µM
TGI (UACC-257 melanoma): 70 µM
TGI (MOLT-4 leukemia): 28.6 µM
TGI (UO-31 renal): > 100 µM
TGI (SK-MEL-28 melanoma): > 100 µM
TGI (DU-145 prostate): > 100 µM
TGI (OVCAR-4 ovarian): > 100 µM

N#Cc1c(-c2ccccc2)c(CN2CCCCC2)c(=O)n2c1[nH]c1ccccc12
TGI (K-562 leukemia): 60.9 µM
TGI (SN12C renal): > 100 µM
TGI (A498 renal): > 100 µM
TGI (LOX IMVI melanoma): 50.8 µM
TGI (UACC-257 melanoma): > 100 µM
TGI (MOLT-4 leukemia): 45.4 µM
TGI (UO-31 renal): > 100 µM
TGI (SK-MEL-28 melanoma): > 100 µM
TGI (OVCAR-4 ovarian): > 100 µM

Cc1ccc2c(/C=C/c3ccc(N(C)C)cc3)ccc(C(C)C)cc1-2
TGI (K-562 leukemia): > 100 µM
TGI (SN12C renal): > 100 µM
TGI (A498 renal): > 100 µM
TGI (LOX IMVI melanoma): > 100 µM
TGI (UACC-257 melanoma): > 100 µM
TGI (EKVX NSCLC): > 100 µM
TGI (MOLT-4 leukemia): > 100 µM
TGI (UO-31 renal): > 100 µM
TGI (SK-MEL-28 melanoma): > 100 µM
TGI (DU-145 prostate): > 100 µM

N#Cc1c(O)c(/C=N/c2ncccn2)c(=O)n2c1[nH]c1ccccc12
TGI (K-562 leukemia): > 100 µM
TGI (SN12C renal): > 100 µM
TGI (A498 renal): > 100 µM
TGI (LOX IMVI melanoma): > 100 µM
TGI (UACC-257 melanoma): > 100 µM
TGI (EKVX NSCLC): > 100 µM
TGI (MOLT-4 leukemia): > 100 µM
TGI (UO-31 renal): > 100 µM
TGI (SK-MEL-28 melanoma): > 100 µM
TGI (OVCAR-4 ovarian): > 100 µM

CC(=O)Nc1cccc(N=NN(C)C)c1
TGI (K-562 leukemia): > 100 µM
TGI (SN12C renal): > 100 µM
TGI (A498 renal): > 100 µM
TGI (LOX IMVI melanoma): > 100 µM
TGI (UACC-257 melanoma): > 100 µM
TGI (EKVX NSCLC): > 100 µM
TGI (MOLT-4 leukemia): > 100 µM
TGI (UO-31 renal): > 100 µM
TGI (SK-MEL-28 melanoma): > 100 µM
TGI (OVCAR-4 ovarian): > 100 µM

CCOc1ccc(N/C(=C(/C(Cl)=C(/Cl)NC(C)(C)C)[N+](=O)[O-])n2nnc3ccccc32)cc1
TGI (K-562 leukemia): > 100 µM
TGI (SN12C renal): > 100 µM
TGI (A498 renal): > 100 µM
TGI (UACC-257 melanoma): > 100 µM
TGI (EKVX NSCLC): > 100 µM
TGI (MOLT-4 leukemia): > 100 µM
TGI (UO-31 renal): > 100 µM
TGI (SK-MEL-28 melanoma): 38.8 µM
TGI (OVCAR-4 ovarian): > 100 µM
